Reference: ChEMBL document CHEMBL5291721, “A preclinical secondary pharmacology resource illuminates target-adverse drug reaction associations of marketed drugs” (Nat Commun, 2023)

Tests used:
[1] = target: T1, Muscarinic acetylcholine receptor M2 (Homo sapiens, UniProt P08172); format: functional, cell-based
T1 sequence (P08172 whole entry): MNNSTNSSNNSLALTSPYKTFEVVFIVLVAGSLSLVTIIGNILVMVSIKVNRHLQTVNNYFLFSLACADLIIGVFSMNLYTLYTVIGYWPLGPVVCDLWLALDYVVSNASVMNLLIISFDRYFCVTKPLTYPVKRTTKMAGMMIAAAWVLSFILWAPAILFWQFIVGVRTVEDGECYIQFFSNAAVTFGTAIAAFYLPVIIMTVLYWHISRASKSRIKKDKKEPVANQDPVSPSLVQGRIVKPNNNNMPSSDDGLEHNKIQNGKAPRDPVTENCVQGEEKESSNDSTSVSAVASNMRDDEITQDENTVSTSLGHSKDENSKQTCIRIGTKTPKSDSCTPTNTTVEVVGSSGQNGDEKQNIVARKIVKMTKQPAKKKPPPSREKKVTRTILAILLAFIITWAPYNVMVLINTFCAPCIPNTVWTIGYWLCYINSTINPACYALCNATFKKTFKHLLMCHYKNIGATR

[2] = target: Motilin receptor (Homo sapiens, UniProt O43193)
[3] = target: Vasopressin V2 receptor (Homo sapiens, UniProt P30518)
[4] = target: T2, Alpha-1A adrenergic receptor (Homo sapiens, UniProt P35348); format: functional, cell-based
T2 sequence (P35348 whole entry): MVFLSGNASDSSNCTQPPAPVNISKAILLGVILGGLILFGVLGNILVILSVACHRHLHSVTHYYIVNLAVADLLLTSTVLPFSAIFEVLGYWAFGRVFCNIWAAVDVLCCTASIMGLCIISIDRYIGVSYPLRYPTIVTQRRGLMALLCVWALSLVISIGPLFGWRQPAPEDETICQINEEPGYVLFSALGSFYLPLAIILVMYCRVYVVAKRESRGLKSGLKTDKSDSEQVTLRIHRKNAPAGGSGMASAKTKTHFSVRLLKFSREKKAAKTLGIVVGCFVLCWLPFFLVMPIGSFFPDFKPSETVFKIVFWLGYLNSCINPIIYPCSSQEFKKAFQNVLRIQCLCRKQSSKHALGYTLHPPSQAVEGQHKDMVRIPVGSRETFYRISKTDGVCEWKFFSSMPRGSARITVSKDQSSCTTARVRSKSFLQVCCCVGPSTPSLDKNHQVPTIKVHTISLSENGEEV

[5] = target: T3, Endothelin-1 receptor (Homo sapiens, UniProt P25101)
T3 sequence (P25101 whole entry): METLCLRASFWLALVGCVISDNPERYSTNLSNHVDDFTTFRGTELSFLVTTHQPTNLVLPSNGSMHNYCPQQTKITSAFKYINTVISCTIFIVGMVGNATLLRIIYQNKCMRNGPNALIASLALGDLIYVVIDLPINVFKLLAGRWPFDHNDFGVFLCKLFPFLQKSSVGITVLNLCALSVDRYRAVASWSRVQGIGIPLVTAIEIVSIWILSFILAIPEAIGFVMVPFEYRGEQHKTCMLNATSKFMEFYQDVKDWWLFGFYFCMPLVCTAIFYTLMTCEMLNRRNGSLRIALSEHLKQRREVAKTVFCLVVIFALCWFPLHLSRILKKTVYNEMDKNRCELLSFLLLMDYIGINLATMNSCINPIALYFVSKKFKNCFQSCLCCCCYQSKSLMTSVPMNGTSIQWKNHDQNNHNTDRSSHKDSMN

[6] = target: Voltage-dependent L-type calcium channel subunit alpha-1C (Rattus norvegicus, UniProt P22002); format: functional
[7] = target: Beta-2 adrenergic receptor (Homo sapiens, UniProt P07550)
[8] = target: cGMP-inhibited 3',5'-cyclic phosphodiesterase 3A (Homo sapiens, UniProt Q14432); format: functional
[9] = target: Sodium-dependent dopamine transporter (Homo sapiens, UniProt Q01959)
[10] = target: T4, Gastrin/cholecystokinin type B receptor (Homo sapiens, UniProt P32239)
T4 sequence (P32239 whole entry): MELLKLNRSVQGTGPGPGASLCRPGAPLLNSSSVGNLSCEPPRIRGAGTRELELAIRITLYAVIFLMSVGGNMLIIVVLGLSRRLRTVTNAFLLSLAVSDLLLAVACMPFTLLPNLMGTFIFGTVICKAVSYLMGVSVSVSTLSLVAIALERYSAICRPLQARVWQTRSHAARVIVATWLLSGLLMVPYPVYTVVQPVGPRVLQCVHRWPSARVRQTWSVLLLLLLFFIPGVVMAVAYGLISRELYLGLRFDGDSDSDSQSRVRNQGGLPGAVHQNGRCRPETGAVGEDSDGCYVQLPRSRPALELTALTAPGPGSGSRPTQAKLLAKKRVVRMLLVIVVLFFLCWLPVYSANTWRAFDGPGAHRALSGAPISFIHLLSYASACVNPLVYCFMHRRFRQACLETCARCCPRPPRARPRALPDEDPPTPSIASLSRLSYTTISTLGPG

[11] = target: T5, Adenosine receptor A1 (Homo sapiens, UniProt P30542)
T5 sequence (P30542 whole entry): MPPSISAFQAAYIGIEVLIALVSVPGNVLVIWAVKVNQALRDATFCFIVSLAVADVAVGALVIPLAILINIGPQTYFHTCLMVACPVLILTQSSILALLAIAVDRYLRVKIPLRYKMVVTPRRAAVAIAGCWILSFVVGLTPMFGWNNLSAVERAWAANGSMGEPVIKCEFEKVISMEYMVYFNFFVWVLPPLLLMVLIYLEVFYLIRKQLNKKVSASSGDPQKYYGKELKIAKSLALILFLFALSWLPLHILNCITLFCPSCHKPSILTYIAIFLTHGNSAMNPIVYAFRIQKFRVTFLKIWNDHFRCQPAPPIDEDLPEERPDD

[12] = target: 5-hydroxytryptamine receptor 2B (Homo sapiens, UniProt P41595); format: functional, cell-based
[13] = target: Histamine H2 receptor (Homo sapiens, UniProt P25021); format: functional, cell-based
[14] = target: Cannabinoid receptor 1 (Homo sapiens, UniProt P21554); format: functional, cell-based
[15] = target: Vasopressin V1a receptor (Homo sapiens, UniProt P37288)
[16] = target: Sodium-dependent serotonin transporter (Homo sapiens, UniProt P31645)
[17] = target: 5-hydroxytryptamine receptor 2A (Homo sapiens, UniProt P28223); format: functional, cell-based
Further: assay procedure not described here.

Sodium-dependent serotonin transporter, sequence (P31645 whole entry): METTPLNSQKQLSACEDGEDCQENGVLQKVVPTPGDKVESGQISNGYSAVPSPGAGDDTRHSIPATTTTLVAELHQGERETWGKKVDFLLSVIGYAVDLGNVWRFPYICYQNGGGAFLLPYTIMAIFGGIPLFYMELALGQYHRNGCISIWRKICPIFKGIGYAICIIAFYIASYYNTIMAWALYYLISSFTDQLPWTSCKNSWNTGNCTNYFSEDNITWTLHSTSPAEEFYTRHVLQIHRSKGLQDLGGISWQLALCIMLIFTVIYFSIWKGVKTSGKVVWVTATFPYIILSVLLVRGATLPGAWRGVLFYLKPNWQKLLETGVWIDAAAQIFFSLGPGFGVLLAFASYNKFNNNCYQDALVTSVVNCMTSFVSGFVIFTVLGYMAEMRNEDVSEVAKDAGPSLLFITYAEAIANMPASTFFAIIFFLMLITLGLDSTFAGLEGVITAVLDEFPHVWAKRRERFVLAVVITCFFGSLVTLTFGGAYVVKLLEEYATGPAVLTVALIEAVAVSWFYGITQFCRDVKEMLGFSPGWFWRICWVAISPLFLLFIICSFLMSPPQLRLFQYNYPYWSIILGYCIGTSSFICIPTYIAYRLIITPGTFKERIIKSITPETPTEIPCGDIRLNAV
Beta-2 adrenergic receptor, sequence (P07550 whole entry): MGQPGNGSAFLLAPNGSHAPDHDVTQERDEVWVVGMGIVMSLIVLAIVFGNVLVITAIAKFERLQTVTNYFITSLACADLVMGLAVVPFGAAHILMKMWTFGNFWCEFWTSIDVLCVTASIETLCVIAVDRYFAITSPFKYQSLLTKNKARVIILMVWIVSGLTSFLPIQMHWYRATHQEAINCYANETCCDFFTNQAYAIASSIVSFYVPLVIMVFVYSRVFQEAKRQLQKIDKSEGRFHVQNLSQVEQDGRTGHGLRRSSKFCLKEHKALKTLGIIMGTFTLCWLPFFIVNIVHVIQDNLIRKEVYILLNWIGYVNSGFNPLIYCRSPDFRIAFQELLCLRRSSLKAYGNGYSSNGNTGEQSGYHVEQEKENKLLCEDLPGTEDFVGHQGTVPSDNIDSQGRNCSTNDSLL
Sodium-dependent dopamine transporter, sequence (Q01959 whole entry): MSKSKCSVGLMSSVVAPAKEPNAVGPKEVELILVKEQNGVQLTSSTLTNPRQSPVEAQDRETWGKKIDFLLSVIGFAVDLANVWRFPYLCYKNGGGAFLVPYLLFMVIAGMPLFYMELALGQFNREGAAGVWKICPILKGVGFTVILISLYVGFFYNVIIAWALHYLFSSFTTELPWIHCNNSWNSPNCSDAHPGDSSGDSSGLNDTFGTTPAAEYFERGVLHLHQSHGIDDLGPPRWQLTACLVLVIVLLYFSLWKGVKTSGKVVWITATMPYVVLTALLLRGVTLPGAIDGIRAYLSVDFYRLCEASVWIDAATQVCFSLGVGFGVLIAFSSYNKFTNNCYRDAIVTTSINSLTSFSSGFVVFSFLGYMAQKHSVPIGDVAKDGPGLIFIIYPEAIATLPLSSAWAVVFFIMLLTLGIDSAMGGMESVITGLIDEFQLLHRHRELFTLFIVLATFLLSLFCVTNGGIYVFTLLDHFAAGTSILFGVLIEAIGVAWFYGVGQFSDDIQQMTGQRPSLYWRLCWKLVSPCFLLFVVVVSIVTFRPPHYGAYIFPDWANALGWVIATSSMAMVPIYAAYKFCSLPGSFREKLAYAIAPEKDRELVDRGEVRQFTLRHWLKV
cGMP-inhibited 3',5'-cyclic phosphodiesterase 3A, sequence (Q14432 whole entry): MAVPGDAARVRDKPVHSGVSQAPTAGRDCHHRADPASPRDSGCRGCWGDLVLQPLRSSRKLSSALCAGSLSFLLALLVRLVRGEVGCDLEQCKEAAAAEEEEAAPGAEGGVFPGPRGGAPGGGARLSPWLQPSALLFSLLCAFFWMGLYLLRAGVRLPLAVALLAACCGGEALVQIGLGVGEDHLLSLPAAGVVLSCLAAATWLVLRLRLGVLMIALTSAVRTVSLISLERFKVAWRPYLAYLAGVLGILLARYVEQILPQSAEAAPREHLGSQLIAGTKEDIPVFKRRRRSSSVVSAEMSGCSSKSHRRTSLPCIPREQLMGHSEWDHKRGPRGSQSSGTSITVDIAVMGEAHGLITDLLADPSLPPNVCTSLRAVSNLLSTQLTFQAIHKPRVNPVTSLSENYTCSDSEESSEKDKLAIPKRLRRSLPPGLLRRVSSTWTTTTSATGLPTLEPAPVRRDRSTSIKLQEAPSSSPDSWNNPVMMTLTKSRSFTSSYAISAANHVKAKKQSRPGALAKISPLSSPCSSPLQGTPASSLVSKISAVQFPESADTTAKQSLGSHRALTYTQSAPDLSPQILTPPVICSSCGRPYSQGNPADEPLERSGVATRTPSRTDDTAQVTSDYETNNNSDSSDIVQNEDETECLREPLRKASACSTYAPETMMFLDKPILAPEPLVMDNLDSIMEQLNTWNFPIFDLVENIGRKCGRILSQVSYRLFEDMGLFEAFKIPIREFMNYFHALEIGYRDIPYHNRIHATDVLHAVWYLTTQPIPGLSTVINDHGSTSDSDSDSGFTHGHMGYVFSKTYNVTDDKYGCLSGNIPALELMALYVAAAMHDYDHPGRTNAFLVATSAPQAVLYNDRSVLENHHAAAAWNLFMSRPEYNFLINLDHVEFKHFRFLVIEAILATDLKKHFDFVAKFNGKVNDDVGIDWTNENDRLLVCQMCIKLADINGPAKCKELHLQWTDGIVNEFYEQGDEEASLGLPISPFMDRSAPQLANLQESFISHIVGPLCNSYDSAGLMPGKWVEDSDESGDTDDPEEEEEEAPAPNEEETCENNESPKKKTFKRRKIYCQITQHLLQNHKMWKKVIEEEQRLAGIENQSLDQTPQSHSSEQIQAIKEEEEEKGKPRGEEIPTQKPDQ
5-hydroxytryptamine receptor 2B, sequence (P41595 whole entry): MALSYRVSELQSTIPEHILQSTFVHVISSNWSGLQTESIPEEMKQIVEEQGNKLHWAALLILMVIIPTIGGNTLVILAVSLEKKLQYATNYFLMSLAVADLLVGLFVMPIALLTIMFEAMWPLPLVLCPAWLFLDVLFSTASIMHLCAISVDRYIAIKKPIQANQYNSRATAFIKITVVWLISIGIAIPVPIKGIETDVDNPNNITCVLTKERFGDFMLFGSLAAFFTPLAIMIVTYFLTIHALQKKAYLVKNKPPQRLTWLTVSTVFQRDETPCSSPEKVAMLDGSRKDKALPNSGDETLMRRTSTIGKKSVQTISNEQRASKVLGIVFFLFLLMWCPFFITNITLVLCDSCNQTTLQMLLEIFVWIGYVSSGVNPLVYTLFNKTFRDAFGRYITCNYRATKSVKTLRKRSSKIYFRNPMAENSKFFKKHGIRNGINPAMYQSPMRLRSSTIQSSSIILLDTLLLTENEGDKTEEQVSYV
Vasopressin V2 receptor, sequence (P30518 whole entry): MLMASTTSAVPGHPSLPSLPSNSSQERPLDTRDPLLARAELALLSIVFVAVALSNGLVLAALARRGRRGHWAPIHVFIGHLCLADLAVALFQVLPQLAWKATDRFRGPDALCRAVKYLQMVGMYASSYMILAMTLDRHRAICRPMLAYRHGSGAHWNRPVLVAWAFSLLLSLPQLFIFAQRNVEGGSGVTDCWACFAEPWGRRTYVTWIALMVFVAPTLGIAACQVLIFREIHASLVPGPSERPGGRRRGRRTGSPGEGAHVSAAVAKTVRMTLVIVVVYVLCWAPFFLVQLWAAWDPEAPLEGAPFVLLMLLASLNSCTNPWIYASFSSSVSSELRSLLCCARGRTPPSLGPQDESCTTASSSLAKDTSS
Histamine H2 receptor, sequence (P25021 whole entry): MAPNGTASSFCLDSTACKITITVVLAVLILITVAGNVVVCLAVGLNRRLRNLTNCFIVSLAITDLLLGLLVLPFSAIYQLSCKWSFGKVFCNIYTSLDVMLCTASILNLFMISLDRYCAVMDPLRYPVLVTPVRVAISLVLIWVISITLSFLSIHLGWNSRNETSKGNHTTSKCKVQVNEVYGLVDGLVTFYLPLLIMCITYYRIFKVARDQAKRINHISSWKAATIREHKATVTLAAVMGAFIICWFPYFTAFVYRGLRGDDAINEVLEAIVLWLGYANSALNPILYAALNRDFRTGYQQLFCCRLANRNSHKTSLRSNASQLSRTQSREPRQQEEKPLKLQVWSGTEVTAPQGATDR
Motilin receptor, sequence (O43193 whole entry): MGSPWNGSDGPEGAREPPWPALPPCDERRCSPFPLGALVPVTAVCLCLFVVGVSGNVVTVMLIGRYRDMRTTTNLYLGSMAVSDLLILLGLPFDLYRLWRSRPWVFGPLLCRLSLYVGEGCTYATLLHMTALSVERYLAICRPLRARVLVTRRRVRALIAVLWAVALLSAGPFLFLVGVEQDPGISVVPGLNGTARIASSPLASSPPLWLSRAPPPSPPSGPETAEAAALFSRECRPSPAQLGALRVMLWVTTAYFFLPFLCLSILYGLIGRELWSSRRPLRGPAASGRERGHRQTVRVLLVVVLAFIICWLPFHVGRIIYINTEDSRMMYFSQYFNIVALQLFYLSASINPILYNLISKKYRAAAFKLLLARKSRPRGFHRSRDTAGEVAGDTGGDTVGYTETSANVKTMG
Cannabinoid receptor 1, sequence (P21554 whole entry): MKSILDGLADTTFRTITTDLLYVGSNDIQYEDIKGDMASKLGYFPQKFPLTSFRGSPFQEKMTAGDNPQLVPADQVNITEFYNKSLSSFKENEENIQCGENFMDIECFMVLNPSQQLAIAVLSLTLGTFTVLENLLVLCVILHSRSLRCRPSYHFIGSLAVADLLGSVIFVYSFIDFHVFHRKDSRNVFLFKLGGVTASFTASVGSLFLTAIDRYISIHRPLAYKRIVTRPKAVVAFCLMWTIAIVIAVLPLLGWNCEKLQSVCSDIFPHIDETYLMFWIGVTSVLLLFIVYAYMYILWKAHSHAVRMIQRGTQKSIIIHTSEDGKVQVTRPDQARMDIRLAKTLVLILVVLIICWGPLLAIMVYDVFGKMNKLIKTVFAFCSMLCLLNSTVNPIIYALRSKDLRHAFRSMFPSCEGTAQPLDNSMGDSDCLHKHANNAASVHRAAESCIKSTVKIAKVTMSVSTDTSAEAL

Molecule | AC50 [1] [µM] | AC50 [2] [µM] | AC50 [3] [µM] | AC50 [4] [µM] | AC50 [5] [µM] | AC50 [6] [µM] | AC50 [7] [µM] | AC50 [8] [µM] | AC50 [9] [µM] | AC50 [10] [µM] | AC50 [11] [µM] | AC50 [12] [µM] | AC50 [13] [µM] | AC50 [14] [µM] | AC50 [15] [µM] | AC50 [16] [µM] | AC50 [17] [µM]
COc1cc(OC)c(C(=O)CCCN2CCCC2)c(OC)c1 [BUFLOMEDIL] | > 30 | > 30 | > 30 | > 30 | > 30 | > 30 | > 30 | > 30 | > 30 | > 30 | > 30 | > 30 | > 30 | > 30 |  |  | 
Clc1ccc2c(c1)C(c1ccccc1)=NCc1nncn1-2 [ESTAZOLAM] | > 10 | > 10 | > 30 | > 30 |  | > 10 | > 10 | > 30 | > 30 | > 30 | > 30 | > 10 | > 10 | > 30 | > 30 | > 30 | 
CC(=O)OCC(CCn1cnc2cnc(N)nc21)COC(C)=O [FAMCICLOVIR] | > 10 | > 10 | > 30 | > 30 | > 30 | > 10 | > 10 | > 30 | > 10 | > 30 | > 30 | > 10 | > 10 | > 30 | > 10 |  | 
Clc1ccc(C(Cn2ccnc2)OCc2ccc(Sc3ccccc3)cc2)c(Cl)c1 (centres undefined) [FENTICONAZOLE] | > 30 | 23 | > 30 | > 30 | > 30 | 12 | > 30 | > 30 |  | > 30 | > 30 | > 30 | > 30 | > 30 | > 30 |  | 
COC1=C(OC)C(=O)C(CCCCCCCCCCO)=C(C)C1=O [IDEBENONE] | > 10 | > 10 | 10.9 | > 30 | > 30 | > 10 | > 10 | 6.4 | > 10 | > 30 | > 30 | > 10 | > 10 | > 30 | > 10 |  | 
Nc1nc2c(c(=O)[nH]1)N(C=O)C(CNc1ccc(C(=O)N[C@@H](CCC(=O)O)C(=O)O)cc1)CN2 (some centres undefined) [LEUCOVORIN] | > 30 | > 30 | > 30 | > 30 | > 30 | > 30 | > 30 | > 30 | > 30 | > 30 | > 30 | > 30 | > 30 | > 30 |  |  | 
CC#CCn1c(N2CCC[C@@H](N)C2)nc2c1c(=O)n(Cc1nc(C)c3ccccc3n1)c(=O)n2C [LINAGLIPTIN] |  | > 10 | > 30 |  |  | > 10 | > 10 | > 30 | > 30 | > 30 | > 30 | > 10 | > 10 |  | > 30 | > 30 | 
O=C1CN=C(c2ccccc2)c2cc(Cl)ccc2N1 [NORDAZEPAM] | > 10 | > 10 | > 30 | > 30 | > 30 | > 10 | > 10 | > 30 | > 10 | > 30 | > 30 | > 10 | > 10 | > 30 | > 10 | > 10 | 
Cc1cc2nc3c(=O)[nH]c(=O)nc-3n(C[C@H](O)[C@H](O)[C@H](O)COP(=O)(O)O)c2cc1C [RIBOFLAVIN 5'-PHOSPHATE] |  | > 30 | > 30 | 12 | > 30 | 15 | > 30 | > 30 | > 30 | > 30 | > 30 |  | > 30 |  | > 30 | > 30 | 
CC(C)CC(N(C)C)C1(c2ccc(Cl)cc2)CCC1 (centres undefined) [SIBUTRAMINE] | > 30 | > 10 | > 30 | > 30 | > 30 | > 10 | > 10 | > 30 | 0.75 | > 30 | > 30 |  | > 10 | > 30 | > 10 |  | 
[H]/N=C(/N)N[C@H]1[C@H](O)[C@@H](O)[C@H](O[C@@H]2O[C@@H](C)[C@](O)(C=O)[C@H]2O[C@@H]2O[C@@H](CO)[C@H](O)[C@@H](O)[C@@H]2NC)[C@@H](N/C(N)=N\[H])[C@@H]1O [STREPTOMYCIN] | > 30 | > 30 | > 30 | > 30 | > 30 | > 30 | > 30 | > 30 | > 30 | > 30 | > 30 | > 30 | > 30 | > 30 | > 30 |  | 
COc1cc2nccc(Oc3ccc(NC(=O)Nc4cc(C)on4)c(Cl)c3)c2cc1OC [TIVOZANIB] | > 30 |  |  | > 30 |  |  | > 3 | 16 | 2.6 |  |  |  |  |  |  |  | > 30
COLISTIN |  |  |  | > 30 |  |  |  | > 30 |  |  |  | > 30 | > 30 | > 30 |  |  | > 30
